Reference: PubChem BioAssay (NCI)
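Five compound concentrations were applied to cells in 96-well plates for 48 hours; endpoints were derived by simple linear interpolation of the resulting dose-response curve. GI50 = concentration required for 50% inhibition of growth. TGI: concentration producing complete growth inhibition.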

Key:
Assay in all cases: DTP human tumour cell line panel, 48 h
U251 CNS = test system: U251 CNS
HCT-116 colon = test system: HCT-116 colon
IGROV1 ovarian = test system: IGROV1 ovarian
SK-OV-3 ovarian = test system: SK-OV-3 ovarian
A498 renal = test system: A498 renal
BT-549 breast = test system: BT-549 breast
K-562 leukemia = test system: K-562 leukemia
HL-60(TB) leukemia = test system: HL-60(TB) leukemia
SN12C renal = test system: SN12C renal
SNB-19 CNS = test system: SNB-19 CNS
UACC-62 melanoma = test system: UACC-62 melanoma
OVCAR-8 ovarian = test system: OVCAR-8 ovarian
NCI-H226 lung = test system: NCI-H226 lung
HOP-92 NSCLC = test system: HOP-92 NSCLC
HCT-15 colon = test system: HCT-15 colon
SK-MEL-5 melanoma = test system: SK-MEL-5 melanoma
MALME-3M melanoma = test system: MALME-3M melanoma
MCF7 breast = test system: MCF7 breast
NCI-H460 lung = test system: NCI-H460 lung
786-0 renal = test system: 786-0 renal
M14 melanoma = test system: M14 melanoma
OVCAR-4 ovarian = test system: OVCAR-4 ovarian
HT29 colon = test system: HT29 colon
MOLT-4 leukemia = test system: MOLT-4 leukemia
MDA-MB-231 breast = test system: MDA-MB-231 breast
OVCAR-5 ovarian = test system: OVCAR-5 ovarian
A549 NSCLC = test system: A549 NSCLC
CAKI-1 renal = test system: CAKI-1 renal
RXF 393 renal = test system: RXF 393 renal
SF-539 CNS = test system: SF-539 CNS
HS 578T breast = test system: HS 578T breast
DU-145 prostate = test system: DU-145 prostate
ACHN renal = test system: ACHN renal
SNB-75 CNS = test system: SNB-75 CNS
SF-268 CNS = test system: SF-268 CNS
KM12 colon = test system: KM12 colon
T-47D breast = test system: T-47D breast
EKVX NSCLC = test system: EKVX NSCLC
TK-10 renal = test system: TK-10 renal
UO-31 renal = test system: UO-31 renal
CCRF-CEM leukemia = test system: CCRF-CEM leukemia
SW-620 colon = test system: SW-620 colon
PC-3 prostate = test system: PC-3 prostate
UACC-257 melanoma = test system: UACC-257 melanoma
NCI-H23 lung = test system: NCI-H23 lung
SR leukemia = test system: SR leukemia
HOP-62 NSCLC = test system: HOP-62 NSCLC
MDA-MB-435 = test system: MDA-MB-435
SK-MEL-28 melanoma = test system: SK-MEL-28 melanoma
COLO 205 colon = test system: COLO 205 colon
OVCAR-3 ovarian = test system: OVCAR-3 ovarian
SK-MEL-2 melanoma = test system: SK-MEL-2 melanoma
NCI/ADR-RES ovarian = test system: NCI/ADR-RES ovarian
SF-295 CNS = test system: SF-295 CNS
HCC-2998 colon = test system: HCC-2998 colon
LOX IMVI melanoma = test system: LOX IMVI melanoma
NCI-H522 lung = test system: NCI-H522 lung
RPMI-8226 leukemia = test system: RPMI-8226 leukemia

## COc1ccc2c(c1)c(/C=N/Nc1ccnc3cc(Cl)ccc13)cn2C
U251 CNS
  GI50: 173 nM
  TGI: 322 nM
HCT-116 colon
  GI50: 176 nM
  TGI: 324 nM
IGROV1 ovarian
  GI50: 176 nM
  TGI: 345 nM
SK-OV-3 ovarian
  GI50: 1570 nM
  TGI: 3140 nM
A498 renal
  GI50: 1830 nM
  TGI: 3470 nM
BT-549 breast
  GI50: 1890 nM
  TGI: 3540 nM
K-562 leukemia
  GI50: 193 nM
  TGI: 382 nM
HL-60(TB) leukemia
  GI50: 231 nM
  TGI: 533 nM
SN12C renal
  GI50: 439 nM
  TGI: 961 nM
SNB-19 CNS
  GI50: 648 nM
  TGI: 2090 nM
UACC-62 melanoma
  GI50: 1730 nM
  TGI: 3520 nM
OVCAR-8 ovarian
  GI50: 202 nM
  TGI: 440 nM
NCI-H226 lung
  GI50: 1820 nM
  TGI: 4310 nM
HOP-92 NSCLC
  GI50: 823 nM
  TGI: 2490 nM
HCT-15 colon
  GI50: 200 nM
  TGI: 410 nM
SK-MEL-5 melanoma
  GI50: 1640 nM
  TGI: 3180 nM
MALME-3M melanoma
  GI50: 1470 nM
  TGI: 3270 nM
MCF7 breast
  GI50: 164 nM
  TGI: 327 nM
NCI-H460 lung
  GI50: 193 nM
  TGI: 357 nM
786-0 renal
  GI50: 175 nM
  TGI: 317 nM
M14 melanoma
  GI50: 992 nM
  TGI: 2600 nM
OVCAR-4 ovarian
  GI50: 681 nM
  TGI: 1700 nM
HT29 colon
  GI50: 176 nM
  TGI: 325 nM
MOLT-4 leukemia
  GI50: 215 nM
  TGI: 478 nM
MDA-MB-231 breast
  GI50: 203 nM
  TGI: 444 nM
OVCAR-5 ovarian
  GI50: 609 nM
  TGI: 1190 nM
A549 NSCLC
  GI50: 181 nM
  TGI: 347 nM
CAKI-1 renal
  GI50: 1490 nM
  TGI: 2890 nM
RXF 393 renal
  GI50: 1260 nM
  TGI: 2900 nM
SF-539 CNS
  GI50: 612 nM
  TGI: 1250 nM
HS 578T breast
  GI50: 1810 nM
  TGI: 3880 nM
DU-145 prostate
  GI50: 192 nM
  TGI: 349 nM
ACHN renal
  GI50: 683 nM
  TGI: 1560 nM
SNB-75 CNS
  GI50: 1320 nM
  TGI: 2800 nM
SF-268 CNS
  GI50: 1660 nM
  TGI: 3460 nM
KM12 colon
  GI50: 194 nM
  TGI: 384 nM
T-47D breast
  GI50: 227 nM
  TGI: 599 nM
EKVX NSCLC
  GI50: 1510 nM
  TGI: 3190 nM
TK-10 renal
  GI50: 1240 nM
  TGI: 2780 nM
UO-31 renal
  GI50: 1390 nM
  TGI: 2850 nM
CCRF-CEM leukemia
  GI50: 234 nM
  TGI: 589 nM
SW-620 colon
  GI50: 185 nM
  TGI: 360 nM
PC-3 prostate
  GI50: 517 nM
  TGI: 1290 nM
UACC-257 melanoma
  GI50: 1780 nM
  TGI: 3660 nM
NCI-H23 lung
  GI50: 214 nM
  TGI: 556 nM
SR leukemia
  GI50: 143 nM
  TGI: 521 nM
HOP-62 NSCLC
  GI50: 1450 nM
  TGI: 3300 nM
MDA-MB-435
  GI50: 186 nM
  TGI: 354 nM
SK-MEL-28 melanoma
  GI50: 1840 nM
  TGI: 3460 nM
COLO 205 colon
  GI50: 578 nM
  TGI: 1800 nM
OVCAR-3 ovarian
  GI50: 1180 nM
  TGI: 2440 nM
SK-MEL-2 melanoma
  GI50: 1700 nM
  TGI: 3280 nM
NCI/ADR-RES ovarian
  GI50: 600 nM
  TGI: 1480 nM
SF-295 CNS
  GI50: 1110 nM
  TGI: 3150 nM
HCC-2998 colon
  GI50: 369 nM
  TGI: 1190 nM
LOX IMVI melanoma
  GI50: 183 nM
  TGI: 352 nM
NCI-H522 lung
  GI50: 563 nM
  TGI: 1280 nM
RPMI-8226 leukemia
  GI50: 233 nM
  TGI: 565 nM

## Cn1ccnc1C(=O)/C=C/C=C/c1ccc(C(=O)Nc2ccc(F)cc2)cc1
U251 CNS
  GI50: 911 nM
  TGI: 8200 nM
HCT-116 colon
  GI50: 666 nM
  TGI: 1570 nM
IGROV1 ovarian
  GI50: 846 nM
  TGI: 2610 nM
SK-OV-3 ovarian
  GI50: 11000 nM
  TGI: > 33300 nM
A498 renal
  GI50: 2600 nM
  TGI: 26900 nM
BT-549 breast
  GI50: 1320 nM
  TGI: 15100 nM
K-562 leukemia
  GI50: 828 nM
  TGI: > 33300 nM
HL-60(TB) leukemia
  GI50: 956 nM
  TGI: 7200 nM
SN12C renal
  GI50: 1540 nM
  TGI: 14200 nM
SNB-19 CNS
  GI50: 2050 nM
  TGI: > 33300 nM
UACC-62 melanoma
  GI50: 3480 nM
  TGI: 15400 nM
OVCAR-8 ovarian
  GI50: 1200 nM
  TGI: > 33300 nM
NCI-H226 lung
  GI50: 2180 nM
  TGI: 12800 nM
HOP-92 NSCLC
  GI50: 3140 nM
  TGI: 20500 nM
HCT-15 colon
  GI50: 568 nM
  TGI: 1250 nM
SK-MEL-5 melanoma
  GI50: 2650 nM
  TGI: 12000 nM
MALME-3M melanoma
  GI50: 1290 nM
  TGI: 6580 nM
MCF7 breast
  GI50: 917 nM
  TGI: > 33300 nM
NCI-H460 lung
  GI50: 1940 nM
  TGI: 10600 nM
786-0 renal
  GI50: 778 nM
  TGI: 1880 nM
M14 melanoma
  GI50: 1930 nM
  TGI: 28700 nM
OVCAR-4 ovarian
  GI50: 6060 nM
  TGI: > 33300 nM
HT29 colon
  GI50: 890 nM
  TGI: 2490 nM
MOLT-4 leukemia
  GI50: 1020 nM
  TGI: > 33300 nM
MDA-MB-231 breast
  GI50: 1410 nM
  TGI: > 33300 nM
OVCAR-5 ovarian
  GI50: 1730 nM
  TGI: 16800 nM
A549 NSCLC
  GI50: 5360 nM
  TGI: > 33300 nM
CAKI-1 renal
  GI50: 3220 nM
  TGI: > 33300 nM
RXF 393 renal
  GI50: 711 nM
  TGI: 1920 nM
SF-539 CNS
  GI50: 858 nM
  TGI: 2440 nM
HS 578T breast
  GI50: 2270 nM
  TGI: > 33300 nM
DU-145 prostate
  GI50: 1520 nM
  TGI: > 33300 nM
ACHN renal
  GI50: 1150 nM
  TGI: 5540 nM
SNB-75 CNS
  GI50: 1180 nM
  TGI: 29300 nM
SF-268 CNS
  GI50: 1540 nM
  TGI: > 33300 nM
KM12 colon
  GI50: 6790 nM
  TGI: > 33300 nM
T-47D breast
  GI50: 2010 nM
  TGI: > 33300 nM
EKVX NSCLC
  GI50: 1260 nM
  TGI: 12100 nM
TK-10 renal
  GI50: 27700 nM
  TGI: > 33300 nM
UO-31 renal
  GI50: 1420 nM
  TGI: 7160 nM
CCRF-CEM leukemia
  GI50: 731 nM
  TGI: > 33300 nM
SW-620 colon
  GI50: 796 nM
  TGI: 2040 nM
PC-3 prostate
  GI50: 1260 nM
  TGI: > 33300 nM
UACC-257 melanoma
  GI50: 14100 nM
  TGI: > 33300 nM
NCI-H23 lung
  GI50: 1040 nM
  TGI: 4460 nM
SR leukemia
  GI50: 468 nM
  TGI: > 33300 nM
HOP-62 NSCLC
  GI50: 8470 nM
  TGI: > 33300 nM
MDA-MB-435
  GI50: 1070 nM
  TGI: 4450 nM
SK-MEL-28 melanoma
  GI50: 2410 nM
  TGI: > 33300 nM
COLO 205 colon
  GI50: 5610 nM
  TGI: > 33300 nM
SK-MEL-2 melanoma
  GI50: 17900 nM
  TGI: > 33300 nM
NCI/ADR-RES ovarian
  GI50: 2020 nM
  TGI: > 33300 nM
SF-295 CNS
  GI50: 9490 nM
  TGI: > 33300 nM
HCC-2998 colon
  GI50: 2610 nM
  TGI: 8770 nM
NCI-H522 lung
  GI50: 1640 nM
  TGI: 16800 nM
RPMI-8226 leukemia
  GI50: 699 nM
  TGI: 2270 nM
